# Laboratory results published in the supplement of paper PMC10307832.
# Experiments:
# Test in all cases: relative viability (nuclei count vs DMSO), 5 days (fraction); higher = more cells survive
# [1] = compound: CC(C)(C)c1nc(-c2cccc(NS(=O)(=O)c3c(F)cccc3F)c2F)c(-c2ccnc(N)n2)s1 [Dabrafenib] + CC(C)C[C@H](NC(=O)[C@H](Cc1ccccc1)NC(=O)c1cnccn1)B(O)O [Bortezomib] (partner 0.002 µM)
# How it was run: (§1)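 A single step with final 0.05% Triton X-100, 1% formaldehyde and 1 ug/ml Hoechst fixed the cells and stained nuclei 5 days after treatment. Lung cancer cell lines in 1536-well plates had been treated by pin tool the day after seeding with one drug alone or a fixed anchor-drug dose plus five library-drug doses (not always all listed) in √10 steps, and nuclei were counted on 4× images. Relative viability is the ratio of nuclei in treated wells to nuclei in vehicle wells, taken as the median of duplicate plates.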
# [2] = compound: CC(C)(C)c1nc(-c2cccc(NS(=O)(=O)c3c(F)cccc3F)c2F)c(-c2ccnc(N)n2)s1 [Dabrafenib] + CS(=O)(=O)N1CCN(Cc2cc3nc(-c4cccc5[nH]ncc45)nc(N4CCOCC4)c3s2)CC1 [Pictilisib] (partner 1 µM)
# How it was run: as §1
# [3] = compound: CC(C)(C)c1nc(-c2cccc(NS(=O)(=O)c3c(F)cccc3F)c2F)c(-c2ccnc(N)n2)s1 [Dabrafenib] + O=C(c1cc(Cc2n[nH]c(=O)c3ccccc23)ccc1F)N1CCN(C(=O)C2CC2)CC1 [Olaparib] (partner 8 µM)
# How it was run: as §1
# [4] = compound: NC(=O)c1ccc(N(C(N)=O)c2c(F)cccc2F)nc1-c1ccc(F)cc1F [VX-702] + Cc1nc(Nc2ncc(C(=O)Nc3c(C)cccc3Cl)s2)cc(N2CCN(CCO)CC2)n1 [Dasatinib] (partner 0.075 µM)
# How it was run: as §1
Cell Line,relative viability ([1]; first compound 0.003 µM),relative viability ([1]; first compound 0.009487 µM),relative viability ([1]; first compound 0.03 µM),relative viability ([1]; first compound 0.09487 µM),relative viability ([1]; first compound 0.3 µM),relative viability ([2]; first compound 0.003 µM),relative viability ([2]; first compound 0.009487 µM),relative viability ([2]; first compound 0.03 µM),relative viability ([2]; first compound 0.09487 µM),relative viability ([2]; first compound 0.3 µM),relative viability ([3]; first compound 0.003 µM),relative viability ([3]; first compound 0.009487 µM),relative viability ([3]; first compound 0.03 µM),relative viability ([3]; first compound 0.09487 µM),relative viability ([3]; first compound 0.3 µM),relative viability ([4]; first compound 0.02 µM),relative viability ([4]; first compound 0.2 µM),relative viability ([4]; first compound 0.6325 µM),relative viability ([4]; first compound 2 µM)
NCI-H1755,0.972,0.924,0.908,0.914,0.903,0.444,0.414,0.237,0.418,0.342,0.845,0.819,0.788,0.859,0.886,0.44,0.432,0.367,0.415
NCI-H1792,–,0.923,0.897,0.885,0.893,–,0.307,0.237,0.311,0.242,–,0.522,0.25,0.324,0.417,0.556,0.781,0.714,0.714
NCI-H1915,0.975,0.99,0.899,0.584,0.502,0.902,1.06,0.862,0.758,0.578,0.276,0.233,0.214,0.215,0.268,0.328,0.282,0.281,0.327
NCI-H1975,0.333,0.432,0.374,0.49,0.429,0.267,0.308,0.27,0.257,0.234,0.723,0.758,0.706,0.681,0.718,0.365,0.344,0.402,0.382
NCI-H1993,1.2,1.46,1.31,1.24,1.7,0.811,0.789,0.723,0.625,0.728,1.17,1.1,1.09,1.06,1.31,0.512,0.611,0.615,0.59
NCI-H2009,0.342,1.06,0.907,0.554,0.517,0.292,0.797,0.475,0.334,0.346,0.638,0.626,0.625,0.439,0.516,0.35,0.401,0.429,0.452
NCI-H2023,0.78,1.09,1.04,0.977,1.02,0.171,0.271,0.207,0.283,0.267,0.478,0.432,0.492,0.46,0.458,0.534,0.724,0.576,0.662
NCI-H2085,1.03,1.13,0.896,0.976,1.04,0.381,0.481,0.328,0.452,0.462,0.759,0.769,0.823,0.71,0.854,0.209,0.339,0.207,0.27
NCI-H2087,0.814,0.752,0.564,0.648,0.761,0.38,0.819,1.08,0.728,0.703,–,0.535,0.541,0.385,0.532,0.953,0.856,0.959,0.967
